For orientation: IC50 means the concentration that gives 50% inhibition. By Ki is commonly meant the equilibrium dissociation constant of an inhibitor or competing ligand from its target.

The target in assay [1] is Mitogen-activated protein kinase 3 (Homo sapiens, UniProt P27361). Nature of the assay: DRUGMATRIX: Protein Serine/Threonine Kinase, ERK1 enzyme inhibition (substrate: Myelin Basic Protein). On the set-up: species or system Escherichia coli. To be noted: Not Active = under 50% inhibition at 10 µM.
Assay [2] can be described thus: DRUGMATRIX: Serotonin (5-Hydroxytryptamine) 5-HT3 radioligand binding (ligand: [3H] GR-65630). It counts as cell membranes, Membrane. To be noted: hek293; Not Active = under 50% inhibition at 10 µM.
A short description of assay [3]: DRUGMATRIX: Phosphodiesterase PDE4 enzyme inhibition (substrate: [3H]cAMP + cAMP). To be noted: u-937; Not Active = under 50% inhibition at 10 µM.
In assay [4] the target is T1, Alpha-1A adrenergic receptor (Rattus norvegicus, UniProt P43140).
T1 sequence (P43140 whole entry): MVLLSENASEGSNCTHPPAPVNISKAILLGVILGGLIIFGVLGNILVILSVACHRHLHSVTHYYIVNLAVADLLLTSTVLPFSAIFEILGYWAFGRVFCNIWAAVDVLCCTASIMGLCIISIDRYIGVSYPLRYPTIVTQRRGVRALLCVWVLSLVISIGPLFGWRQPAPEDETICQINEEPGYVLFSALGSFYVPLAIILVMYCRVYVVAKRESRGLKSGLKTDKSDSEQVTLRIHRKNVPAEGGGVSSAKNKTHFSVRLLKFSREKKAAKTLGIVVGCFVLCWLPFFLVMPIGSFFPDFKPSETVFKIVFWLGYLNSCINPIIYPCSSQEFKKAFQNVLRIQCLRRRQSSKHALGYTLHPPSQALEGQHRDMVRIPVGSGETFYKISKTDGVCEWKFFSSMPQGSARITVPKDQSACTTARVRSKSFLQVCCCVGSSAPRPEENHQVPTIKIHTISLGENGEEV
Nature of the assay: DRUGMATRIX: Alpha-1A adrenergic receptor radioligand binding (ligand: prazosin). It counts as cell membranes, Wistar, Submaxillary gland, Membrane. Particulars: Not Active = under 50% inhibition at 10 µM; for Ki: read-out: Ki.

The target of assay [5] is T2, Adenosine receptor A1 (Homo sapiens, UniProt P30542).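 Further: radioligand binding assay at the adenosine A1 receptor, with DPCPX serving as the labelled ligand; in other assays of this panel Not Active means under 50% inhibition at 10 µM.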
T2 sequence (P30542 whole entry): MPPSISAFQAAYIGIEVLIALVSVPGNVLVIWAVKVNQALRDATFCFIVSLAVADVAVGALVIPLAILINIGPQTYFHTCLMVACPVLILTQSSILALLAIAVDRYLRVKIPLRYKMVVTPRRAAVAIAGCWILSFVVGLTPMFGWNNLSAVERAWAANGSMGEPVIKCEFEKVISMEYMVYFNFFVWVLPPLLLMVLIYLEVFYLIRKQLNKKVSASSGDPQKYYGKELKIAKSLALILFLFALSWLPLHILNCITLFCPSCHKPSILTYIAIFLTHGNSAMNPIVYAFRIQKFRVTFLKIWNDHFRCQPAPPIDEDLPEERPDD
It counts as cell membranes, CHO, Membrane. Particulars: for Ki: read-out: Ki.

In assay [6] the target is T3, Angiotensin-converting enzyme (Oryctolagus cuniculus, UniProt P12822).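 Further: enzymatic inhibition of angiotensin-converting enzyme measured with FAPGG as the substrate; in other assays of this panel Not Active means under 50% inhibition at 10 µM.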
T3 sequence (P12822 whole entry): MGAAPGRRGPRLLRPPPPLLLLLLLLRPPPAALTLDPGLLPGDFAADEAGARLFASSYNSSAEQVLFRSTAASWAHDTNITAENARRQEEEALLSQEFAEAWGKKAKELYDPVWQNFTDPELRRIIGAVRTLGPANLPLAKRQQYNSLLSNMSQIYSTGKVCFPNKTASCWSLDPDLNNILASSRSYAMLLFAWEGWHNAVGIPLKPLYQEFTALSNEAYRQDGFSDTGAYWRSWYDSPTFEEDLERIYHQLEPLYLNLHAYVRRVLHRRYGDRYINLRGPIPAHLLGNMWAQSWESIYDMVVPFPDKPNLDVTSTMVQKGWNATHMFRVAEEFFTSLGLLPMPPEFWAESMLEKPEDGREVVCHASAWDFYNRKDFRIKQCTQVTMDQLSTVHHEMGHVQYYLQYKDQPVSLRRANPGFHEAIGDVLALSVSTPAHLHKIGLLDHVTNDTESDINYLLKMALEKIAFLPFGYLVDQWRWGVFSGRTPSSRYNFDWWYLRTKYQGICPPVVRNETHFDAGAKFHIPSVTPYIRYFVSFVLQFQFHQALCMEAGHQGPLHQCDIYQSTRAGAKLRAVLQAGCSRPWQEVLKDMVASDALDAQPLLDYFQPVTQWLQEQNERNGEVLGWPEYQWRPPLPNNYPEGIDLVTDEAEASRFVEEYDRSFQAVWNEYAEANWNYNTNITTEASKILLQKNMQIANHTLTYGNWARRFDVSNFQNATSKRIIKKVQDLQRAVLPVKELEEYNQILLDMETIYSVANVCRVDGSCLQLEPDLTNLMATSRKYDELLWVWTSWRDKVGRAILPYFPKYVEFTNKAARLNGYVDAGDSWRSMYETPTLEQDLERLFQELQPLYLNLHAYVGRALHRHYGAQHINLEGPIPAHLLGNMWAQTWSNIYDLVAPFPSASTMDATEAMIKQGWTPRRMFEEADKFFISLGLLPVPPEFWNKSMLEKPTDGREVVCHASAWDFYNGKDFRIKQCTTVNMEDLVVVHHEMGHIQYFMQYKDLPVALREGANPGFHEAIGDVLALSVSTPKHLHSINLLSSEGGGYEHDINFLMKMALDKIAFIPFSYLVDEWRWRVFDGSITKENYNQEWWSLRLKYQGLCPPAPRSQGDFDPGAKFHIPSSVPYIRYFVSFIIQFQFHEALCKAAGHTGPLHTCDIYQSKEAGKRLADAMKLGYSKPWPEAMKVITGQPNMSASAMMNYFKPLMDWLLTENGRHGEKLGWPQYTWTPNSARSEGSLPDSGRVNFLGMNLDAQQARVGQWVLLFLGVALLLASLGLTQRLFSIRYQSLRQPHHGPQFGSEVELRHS
It counts as tissue-based, Lung.

Assay [7] concerns the target C-C chemokine receptor type 5 (Homo sapiens, UniProt P51681). It counts as cell membranes, Membrane. To be noted: hek293. Further: in other assays of this panel Not Active means under 50% inhibition at 10 µM.

Mitogen-activated protein kinase 3, sequence (P27361 whole entry): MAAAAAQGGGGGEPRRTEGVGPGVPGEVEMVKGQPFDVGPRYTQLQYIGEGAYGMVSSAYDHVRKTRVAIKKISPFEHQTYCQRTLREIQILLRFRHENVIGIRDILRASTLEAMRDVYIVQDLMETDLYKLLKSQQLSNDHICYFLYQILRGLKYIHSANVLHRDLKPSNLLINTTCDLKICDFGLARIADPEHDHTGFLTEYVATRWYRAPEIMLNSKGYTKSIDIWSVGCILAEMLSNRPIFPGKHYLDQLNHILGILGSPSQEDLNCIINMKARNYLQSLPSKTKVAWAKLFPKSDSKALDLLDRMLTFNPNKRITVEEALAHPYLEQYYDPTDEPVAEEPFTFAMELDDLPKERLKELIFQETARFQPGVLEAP
C-C chemokine receptor type 5, sequence (P51681 whole entry): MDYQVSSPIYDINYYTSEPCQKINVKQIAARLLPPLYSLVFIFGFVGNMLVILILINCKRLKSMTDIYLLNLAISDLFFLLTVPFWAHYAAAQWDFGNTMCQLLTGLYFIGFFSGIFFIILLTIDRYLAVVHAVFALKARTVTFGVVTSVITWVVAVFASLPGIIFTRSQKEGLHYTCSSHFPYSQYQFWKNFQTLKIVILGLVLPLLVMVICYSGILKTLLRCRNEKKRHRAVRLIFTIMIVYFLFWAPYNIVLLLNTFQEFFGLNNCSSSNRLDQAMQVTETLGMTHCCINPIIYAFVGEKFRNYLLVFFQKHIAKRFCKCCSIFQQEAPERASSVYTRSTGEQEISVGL

On to `COc1cc(N)nc2[nH]c(-c3ccc(F)cc3)c(-c3ccncc3)c12`, for which the IC50 result in assay [1] is “Not Active”; in assay [2], “Not Active”; in assay [3], “Not Active”; in assay [4], “Not Active”; in assay [5] (read-out: IC50), 887 nM; in assay [6] it was “Not Active”. In assay [7], the IC50 result is given as “Not Active”. For the same compound, the inhibitory constant (Ki) result in assay [2] was “Not Active”; in assay [3], “Not Active”; in assay [5], 518 nM.
With `CNS(=O)(=O)Cc1ccc2[nH]cc(CCN(C)C)c2c1`, the IC50 entry in assay [1], in assay [2], in assay [3], in assay [4], in assay [5] (cho) and in assay [6] was “Not Active” throughout. In assay [7], the IC50 entry is on record as “Not Active”. Also, the Ki entry in assay [2] and in assay [3] was “Not Active” each time.
For the compound `CCCc1nn(C)c2c(=O)[nH]c(-c3cc(S(=O)(=O)N4CCN(C)CC4)ccc3OCC)nc12`, the IC50 result in assay [1] was “Not Active”; in assay [2], “Not Active”; in assay [3], “Not Active”; in assay [4], “Not Active”; in assay [5] (read-out: IC50), 1490 nM; in assay [6], “Not Active”. Besides, the IC50 entry in assay [7] was “Not Active”. The inhibition constant (Ki) entry is “Not Active” in assay [2], “Not Active” in assay [3] and 871 nM in assay [5].
Regarding `COc1ccc(/C=C/C(=O)Nc2ccccc2C(=O)O)cc1OC`, the IC50 result in assay [1], in assay [2], in assay [3], in assay [4], in assay [5] (cho) and in assay [6] was “Not Active” in each case. Besides, the IC50 entry in assay [7] is “Not Active”. The Ki result in assay [2] and in assay [3] was “Not Active” each time.
In the case of `CCOC(N)=O`, the IC50 entry in assay [1], in assay [2], in assay [3], in assay [4], in assay [5] (cho) and in assay [6] was “Not Active” each time. Moreover, the IC50 entry in assay [7] was “Not Active”. Also, the Ki entry in assay [2] and in assay [3] was “Not Active” in each case.
Take `CC(=O)Nc1nnc(S(N)(=O)=O)s1` [ACETAZOLAMIDE]: the IC50 result in assay [1], in assay [4], in assay [5] (cho), in assay [6] and in assay [7] was “Not Active” throughout.
Consider `O=c1[nH]c2ccccc2n1CCCN1CCC(n2c(=O)[nH]c3cc(Cl)ccc32)CC1` [DOMPERIDONE], for which the IC50 result was “Not Active” in assay [1]; 285 nM in assay [4] (read-out: IC50); “Not Active” in assay [5] (cho); “Not Active” in assay [6]; “Not Active” in assay [7]. In addition, the Ki in assay [4] is 116 nM.
As for `CC1=C(CC(=O)O)c2cc(F)ccc2/C1=C\c1ccc(S(C)(=O)=O)cc1` [EXISULIND], the IC50 entry in assay [1], in assay [2], in assay [3], in assay [4], in assay [5] (cho) and in assay [6] was “Not Active” each time. The IC50 result in assay [7] is reported as “Not Active”. Moreover, the Ki entry in assay [2] and in assay [3] was “Not Active” each time.
With `CC(C)OC(=O)C(C)(C)Oc1ccc(C(=O)c2ccc(Cl)cc2)cc1` [FENOFIBRATE], the IC50 entry in assay [1], in assay [4], in assay [5] (cho), in assay [6] and in assay [7] was “Not Active” each time.
On to `OCCN1CCN(CCCN2c3ccccc3Sc3ccc(C(F)(F)F)cc32)CC1` [FLUPHENAZINE], for which the IC50 entry in assay [1] was “Not Active”; in assay [4] (read-out: IC50) it was 24 nM; in assay [5] (cho), “Not Active”; in assay [6], “Not Active”; in assay [7], “Not Active”. Besides, in assay [4], the Ki was found to be 9.58 nM.
As to `CN1C2CCCC1CC(NC(=O)c1nn(C)c3ccccc13)C2` (stereo not given) [GRANISETRON], the IC50 entry in assay [1], in assay [4], in assay [5] (cho), in assay [6] and in assay [7] was “Not Active” throughout.
For `Nc1nc2c(c(=O)[nH]1)N(C=O)C(CNc1ccc(C(=O)N[C@@H](CCC(=O)O)C(=O)O)cc1)CN2` (stereo not given in full) [LEUCOVORIN], the IC50 result in assay [2], in assay [3], in assay [4], in assay [5] (cho), in assay [6] and in assay [7] was “Not Active” each time. Besides, the inhibition constant Ki result in assay [2] and in assay [3] was “Not Active” in each case.
For the compound `C[C@@H](O)[C@H]1C(=O)N2C(C(=O)O)=C(S[C@@H]3CN[C@H](C(=O)N(C)C)C3)[C@H](C)[C@H]12` [MEROPENEM], the IC50 entry in assay [1], in assay [2], in assay [3], in assay [4], in assay [5] (cho) and in assay [6] was “Not Active” each time. Moreover, in assay [7], the IC50 result is given as “Not Active”. Further, the Ki result in assay [2] and in assay [3] was “Not Active” throughout.
For `CC[C@@H](CO)NC(=O)[C@@H]1C=C2c3cccc4c3c(cn4C)C[C@H]2N(C)C1` [METHYSERGIDE], the IC50 result in assay [1], in assay [4], in assay [5] (cho), in assay [6] and in assay [7] was “Not Active” throughout.
As for `CCN(CC)CC#CCOC(=O)C(O)(c1ccccc1)C1CCCCC1` (stereo not given) [OXYBUTYNIN], the IC50 result in assay [1], in assay [4], in assay [5] (cho), in assay [6] and in assay [7] was “Not Active” in each case.
For the compound `O=P(O)(O)C(O)(Cc1cccnc1)P(=O)(O)O` [RISEDRONIC ACID], the IC50 result in assay [1], in assay [2], in assay [3], in assay [4], in assay [5] (cho) and in assay [6] was “Not Active” throughout. Besides, the IC50 result in assay [7] is “Not Active”. Moreover, the Ki entry in assay [2] and in assay [3] was “Not Active” each time.
Turning to `O=c1n(CCCN2CCN(c3cccc(Cl)c3)CC2)nc2ccccn12` [TRAZODONE], the IC50 entry in assay [1] is “Not Active”; in assay [4] (read-out: IC50), 117 nM; in assay [5] (cho), “Not Active”; in assay [6], “Not Active”; in assay [7], “Not Active”. In assay [4], the Ki was 47 nM.
